Several values for one entry are separate records, joined by “and”; a condition that tells them apart may be missing. Equal values may be shown once.
Assays:
[1] = system: lactose transport in K. lactis MS425/pKR1B; assay: Lactose transport ([14C]lactose uptake) in K. lactis; format: cell-based
Description: (§1) After warming the cells to 23° C. the competing compound was added to a final concentration of 50 mM. Thirty seconds later [^14 C] lactose was added to a final concentration of 1 mM and 100 μl samples were filtered 1 and 2 minutes later. […] For K. lactis the experiment was done twice and for S. cerevisiae it was done three times. Averaged values with or without a standard deviation are shown.
(§2) Finally, the lactose transport in LAC^+ S. cerevisiae was determined to be an energy-dependent process, as it is in K. lactis. To measure energy dependence, cells were pre-incubated for 20 minutes with 1 mM 2,4-dinitrophenol at ambient temperature.
(§3) The kinetics of lactose transport were measured to determine if Lac^+ S. cerevisiae transported measurable quantities of lactose and to determine the time scale over which the apparent initial velocity of transport could be measured. Lactose transport was measured using the following procedure. Saturated cultures of cells were obtained by growth at 30° C. in medium A: 10 g yeast extract, 20 g peptone, 100 ml of 20% lactic acid (titrated to pH 4.5 with solid sodium hydroxide) and 100 ml of 20% glycerol per liter, or medium B: 3.4 g yeast nitrogen base (Difco, without amino acids or ammonium sulfate), 10 g ammonium sulfate, 3 g 20 mg adenine, 20 mg uracil, 20 mg leucine, 20 mg histidine, 20 mg tryptophan, 20 mg methionine and 20 mg lysine per liter. Strain MS425/pKR1B of K. lactis was grown on medium A containing 10 μg G418/ml, while S. cerevisiae strains L1582/pKR1B, and YNN27/pKR1B were grown on the same medium containing 200 μg […] Strains L1582 or YNN27 transformed with either plasmid A, B, or C (autonomous or integrated) were grown on medium B.
(§4) This procedure is a modification of the procedure described by Serrano, R. (1977) European J. of Biochem. 80:97-10^2. To prepare cells for transport measurements, a saturated culture was diluted into fresh medium and grown from […]. Cells were harvested by filtration (45 mm dia, 0.45 μm Millipore type HA), washed four times with 10 ml of ice cold distilled water, and then resuspended in 100 mM tartaric acid (titrated to pH 4.2 with sodium hydroxide) at 60 to 100 A600 /ml. At this point cells could be stored at 4° C. for up to 24 hours without loss of transport activity.
(§5) To measure lactose transport, a sample of cells, 0.3 to 1.0 ml, was warmed to 23° C. for 2 min, lactose was added to the desired concentrations and at zero time 0.luCi of D-Glucose-[^14C ]lactose (CFA 278; 58 mCi/mM; Amersham Corp., Lexington, Mass.) was added per 0.3 ml of cells. At the indicated times 100 μl samples were filtered on 25 mm diameter Nuclepore filters (0.4μm pore size; Nuclepore Corp., Pleasanton, Cal.). The filter was washed twice with 5 ml of ice cold distilled water, dried and counted in 4 ml of a toluene-based cocktail containing 250 ml of triton X-100 and 6.5 g p-terphenyl per liter using a liquid scintillation counter. The specific activity, cpm/pmole of lactose, of each reaction was determined by counting a 10 μl sample. Data are expressed as pmoles of intracellular lactose per A600. Background transport was measured using cells that were heated for 3 min at 90° C. Typical background was 25 to 30 cpm.
The lactose transport in Lac^+ S. cerevisiae was determined to be an energy-dependent process, as it is in K. lactis. To measure energy dependence, cells were pre-incubated with 1 mM […] for 20 minutes at ambient temperature and then the uptake of 1 mM ^14 C-lactose was measured. Lactose transport was inhibited 91% both in the Lac^+ strain of S. cerevisiae , L1582/pKR1B-LAC4-1, and in the K. lactis strain MS425/pKR1B.

[2] = system: lactose transport in S. cerevisiae L1582/pKR1B-LAC4-1; assay: Lactose transport ([14C]lactose uptake) in Lac+ S. cerevisiae; format: cell-based; details: for inhibition of lactose transport (stereospecificity, in words): summary of Table 1 (L1582/pKR1B-LAC4-1 and K. lactis)
Description: The rate of lactose transport as a function of substrate concentration is shown for two experiments using Lac^+ L1582/pKR1B-LAC4-1 (.smallcircle.--.smallcircle.) and Lac^+ L1582/pKR1B-LAC4-Δ1087(.quadrature.--.quadrature.). For each concentration of lactose, the rate of transport represented the average of samples taken at 30, 60, and 90 seconds.
as §1, §2, §3, §4, §5
The lactose transport in Lac^+ S. cerevisiae was determined to be an energy-dependent process, as it is in K. lactis. To measure energy dependence, cells were pre-incubated with 1 mM […] for 20 minutes at ambient temperature and then the uptake of 1 mM ^14 C-lactose was measured. […]

[3] = pre-incubated 20 minutes with 1 mM at ambient temperature
[4] = Kluyveromyces lactis, competing compound 50 mM, [14C]lactose 1 mM, 23° C., samples at 1 and 2 minutes, average of two experiments
[5] = Saccharomyces cerevisiae, competing compound 50 mM, [14C]lactose 1 mM, 23° C., samples at 1 and 2 minutes, average of three experiments with standard deviation

Structure (SMILES)	inhibition of lactose transport (stereospecificity, in words) [2]	inhibition at 50000 µM [1, 4] [%]	inhibition at 50000 µM [2, 5] [%]	also measured
OC[C@H]1O[C@@H](O[C@H]2[C@H](O)[C@@H](O)C(O)O[C@@H]2CO)[C@H](O)[C@@H](O)[C@H]1O (stereo partly drawn) [lactose, 4-0-beta-D-galactosyl-D-glucose]	–	–	–	Km ([1]; K. lactis strain MS425, read-out: apparent Km for lactose transport, K. lactis strain MS425): 670 µM; Km ([2]; two experiments of FIG. 4: Lac+ L1582/pKR1B-LAC4-1 and Lac+ L1582/pKR1B-LAC4-Δ1087, rates averaged from 30, 60 and 90 seconds, read-out: apparent Km for lactose transport, Lac+ S. cerevisiae): 970 µM and 1090 µM
O=[N+]([O-])c1ccc(O)c([N+](=O)[O-])c1 [2,4-dinitrophenol]	–	–	–	inhibition at 1000 µM ([1]; Kluyveromyces lactis, read-out: Lactose transport inhibited (energy dependence), K. lactis MS425/pKR1B): 91%; Lactose transport inhibition in words (energy dependence), K. lactis MS425/pKR1B [1, 3]: inhibited almost completely; inhibition at 1000 µM ([2]; Saccharomyces cerevisiae, read-out: Lactose transport inhibited (energy dependence), S. cerevisiae L1582/pKR1B-LAC4-1): 91%; Lactose transport inhibition in words (energy dependence), S. cerevisiae L1582/pKR1B-LAC4-1 [2, 3]: inhibited almost completely
O=C[C@@H](O)[C@H](O[C@@H]1O[C@H](CO)[C@H](O)[C@H](O)[C@H]1O)[C@H](O)CO [3-0-β-D-galactosyl-D-arabinose]	strongest inhibition	–	–	% Inhibition of Lactose Transport, K. lactis MS425/pKR1B ([1]; competing compound 50 mM, [14C]lactose 1 mM, 23° C., samples at 1 and 2 minutes, average of two experiments): 93%; % Inhibition of Lactose Transport, S. cerevisiae L1582/pKR1B-LAC4-1 ([2]; competing compound 50 mM, [14C]lactose 1 mM, 23° C., samples at 1 and 2 minutes, average of three experiments with standard deviation): 90 ± 6%
O=[N+]([O-])c1ccc(O[C@H]2O[C@H](CO)[C@H](O)[C@H](O)[C@H]2O)cc1 [4-nitrophenyl-α-D-galactoside]	inhibited only weakly	–	–	–
OC[C@H]1O[C@H](OC[C@H]2OC(O)[C@H](O)[C@@H](O)[C@@H]2O)[C@H](O)[C@@H](O)[C@H]1O (stereo partly drawn) [6-0-α-D-galactosyl-D-glucose]	inhibited only weakly	10	10.7 ± 8	–
OC[C@H]1O[C@@H](S[C@@H]2O[C@H](CO)[C@H](O)[C@H](O)[C@H]2O)[C@H](O)[C@@H](O)[C@H]1O [D-galactosyl-1-thio-β-D-galactoside]	only moderate inhibition	28	4.9 ± 4	–
O=C[C@H](O)[C@@H](O)[C@@H](O)[C@H](O)CO [D-galactose]	only moderate inhibition	26	24.3 ± 7.2	–

— patent US5047340A, “LAC+ saccharomyces cerevisiae” (The University of Kentucky Research Foundation, priority 1988, dated 1991)
